In publication PMC7281072 (Cancers, 2020):

Columns and labels:
[1] = tested on: OVCAR-3 cancer cell line
[2] = tested on: pAKT; assay: Western immunoblotting densitometry, pAKT, OVCAR-3 cells; type: cell-based, human; conditions: 25 μM; for ratio [pAKT]/[GAPDH] band intensity: OVCAR-3 cells; for ratio [pAKT]/[GAPDH] band intensity, single blot (panel A): panel A upper set, cell line not given, control ratio 1.21
[3] = tested on: SK-OV-3 cancer cell line
[4] = tested on: ERK1,2 phosphorylation; assay: ERK1/2 phosphorylation ELISA, SK-OV-3 cells; type: cell-based, human; conditions: for Vmax ± SE, pERK 1/2 inhibition: Michaelis Menten model; for IC50: Homo sapiens, read-out: IC50, pERK 1/2 inhibition
[5] = tested on: ERK1,2 phosphorylation; assay: ERK1/2 phosphorylation ELISA, UWB1.289 cells; type: cell-based, human; conditions: for Vmax ± SE, pERK 1/2 inhibition: Michaelis Menten model; for IC50: Homo sapiens, read-out: IC50, pERK 1/2 inhibition
[6] = tested on: AKT1,2 phosphorylation; assay: AKT phosphorylation ELISA, UWB1.289 cells; type: cell-based, human; conditions: for Vmax ± SE, pAKT 1/2 inhibition: Michaelis Menten model; for IC50: Homo sapiens, read-out: IC50, pAKT 1/2 inhibition
[7] = tested on: UWB1.289+BRCA1 cancer cell line
[8] = tested on: CB17 SCID mice; conditions: both, mouse, in vivo, ip
[9] = tested on: AKT1,2 phosphorylation; assay: AKT phosphorylation ELISA, SK-OV-3 cells; type: cell-based, human; conditions: for Vmax ± SE, pAKT 1/2 inhibition: Michaelis Menten model; for IC50: Homo sapiens, read-out: IC50, pAKT 1/2 inhibition
[10] = tested on: ERK1,2 phosphorylation; assay: ERK1/2 phosphorylation ELISA, OVCAR-3 cells; type: cell-based, human; conditions: for Vmax ± SE, pERK 1/2 inhibition: Michaelis Menten model; for IC50: Homo sapiens, read-out: IC50, pERK 1/2 inhibition
[11] = tested on: ERK1,2 phosphorylation; assay: ERK1/2 phosphorylation ELISA, OVCAR-5 cells; type: cell-based, human; conditions: for Vmax ± SE, pERK 1/2 inhibition: Michaelis Menten model; for IC50: Homo sapiens, read-out: IC50, pERK 1/2 inhibition
[12] = tested on: SKOV-3 human ovarian adenocarcinoma xenograft; set-up: species or system CB17 SCID mice; conditions: mouse, in vivo
[13] = tested on: UWB1.289 cancer cell line; assay: cells; conditions: Homo sapiens, UWB1289, 48 h
[14] = tested on: pAKT; assay: Western immunoblotting densitometry, pAKT, SKOV-3 cells; type: cell-based, human; conditions: 25 μM; for ratio [pAKT]/[GAPDH] band intensity: SKOV-3 cells; for ratio [pAKT]/[GAPDH] band intensity, single blot (panel A): panel A lower set, cell line not given, control ratio 0.996
[15] = tested on: SK-OV-3 cancer cell line; assay: cells; conditions: Homo sapiens, SK-OV-3, 48 h
[16] = tested on: UWB1.289 cancer cell line
[17] = tested on: UWB1.289+BRCA1 cancer cell line; assay: cells; conditions: Homo sapiens, 48 h
[18] = tested on: AKT1,2 phosphorylation; assay: AKT phosphorylation ELISA, OVCAR-5 cells; type: cell-based, human; conditions: for Vmax ± SE, pAKT 1/2 inhibition: Michaelis Menten model; for IC50: Homo sapiens, read-out: IC50, pAKT 1/2 inhibition
[19] = tested on: ERK1,2 phosphorylation; assay: ERK1/2 phosphorylation ELISA, UWB1.289+BRCA1 cells; type: cell-based, human; conditions: for Vmax ± SE, pERK 1/2 inhibition: Michaelis Menten model; for IC50: Homo sapiens, read-out: IC50, pERK 1/2 inhibition
[20] = tested on: AKT1,2 phosphorylation; assay: AKT phosphorylation ELISA, OVCAR-3 cells; type: cell-based, human; conditions: for Vmax ± SE, pAKT 1/2 inhibition: Michaelis Menten model; for IC50: Homo sapiens, read-out: IC50, pAKT 1/2 inhibition
[21] = tested on: AKT1,2 phosphorylation; assay: AKT phosphorylation ELISA, UWB1.289+BRCA1 cells; type: cell-based, human; set-up: Vmax ± SE, pAKT 1/2 inhibition: unit not given beside the values; conditions: for Vmax ± SE, pAKT 1/2 inhibition: Michaelis Menten model; for IC50: Homo sapiens, read-out: IC50, pAKT 1/2 inhibition
[22] = tested on: pERK1,2; assay: Western immunoblotting densitometry, pERK1,2, OVCAR-3 cells; type: cell-based, human; conditions: 25 μM; for ratio [pERK1+pERK2]/[GAPDH] band intensity: OVCAR-3 cells; for ratio [pERK1+pERK2]/[GAPDH] band intensity, single blot (panel A): panel A upper set, cell line not given
[23] = tested on: OVCAR-5 cancer cell line
[24] = tested on: OVCAR-5 cancer cell line; assay: cells; conditions: Homo sapiens, OVCAR-5, 48 h
[25] = read-out: GI50 (50% Growth Inhibition)
[26] = read-out: IC50 (cytotoxic effect)

C[C@]12CC[C@H]3[C@@H](CCC4=CC(=O)NCC[C@@]43C)[C@@H]1CC[C@@H]2OC(=O)CCOc1ccc(N(CCCl)CCCl)cc1 [ENGA-L06E, 5a,7a-dimethyl-2-oxo-2,3,4,5,5a,5b,6,7,7a,8,9,10,10a,10b,11,12-hexa decahydrocyclopenta [5, 6] naphtho [1,2-d] azepin-8-yl 3-(4-(bis(2-chloroethyl)amino)phenoxy) propanoate]
TGI (Total Growth Inhibition) [1]: 32 ± 1.8 μΜ
ratio [pAKT]/[GAPDH] band intensity ([2]; 30min, control ratio 1.23): 0.92
ratio [pAKT]/[GAPDH] band intensity ([2]; 1h, control ratio 1.14): 0.62
ratio [pAKT]/[GAPDH] band intensity ([2]; 3h, control ratio 1.27): 0.61
ratio [pAKT]/[GAPDH] band intensity ([2]; 6h, control ratio 1.26): 0.54
ratio [pAKT]/[GAPDH] band intensity ([2]; 12h, control ratio 1.18): 0.50
ratio [pAKT]/[GAPDH] band intensity ([2]; 24h, control ratio 1.29): 0.59
ratio [pAKT]/[GAPDH] band intensity, single blot (panel A) ([2]; 1h): 0.52
ratio [pAKT]/[GAPDH] band intensity, single blot (panel A) ([2]; 3h): 0.22
TGI (Total Growth Inhibition) [3]: 52 ± 3.3 μΜ
Vmax ± SE, pERK 1/2 inhibition ([4]; 15 min): 79.14 ± 2.62
Vmax ± SE, pERK 1/2 inhibition ([4]; 30 min): 82.95 ± 1.69
Vmax ± SE, pERK 1/2 inhibition ([4]; 60 min): 84.71 ± 1.60
IC50 ([4]; 0.25 h, 15 min): 13 µM
IC50 ([4]; 0.5 h, 30 min): 11 µM
IC50 ([4]; 1 h, 60 min): 8.78 µM
Vmax ± SE, pERK 1/2 inhibition ([5]; 15 min): 76.21 ± 2.11
Vmax ± SE, pERK 1/2 inhibition ([5]; 60 min): 89.63 ± 2.53
IC50 ([5]; UWB1289, 0.25 h, 15 min): 6.81 µM
IC50 ([5]; UWB1289, 0.5 h, 30 min): 4.12 µM
IC50 ([5]; UWB1289, 1 h, 60 min): 3.53 µM
Vmax ± SE, pAKT 1/2 inhibition ([6]; 15 min): 62.12 ± 1.41
Vmax ± SE, pAKT 1/2 inhibition ([6]; 30 min): 64.94 ± 4.22
Vmax ± SE, pAKT 1/2 inhibition ([6]; 60 min): 71.12 ± 3.34
IC50 ([6]; UWB1289, 0.25 h, 15 min): 16.9 µM
IC50 ([6]; UWB1289, 0.5 h, 30 min): 14.4 µM
IC50 ([6]; UWB1289, 1 h, 60 min): 11.8 µM
TGI (Total Growth Inhibition) [7]: 28 ± 1.9 μΜ
LD10 [8]: 120 mg/kg
Vmax ± SE, pAKT 1/2 inhibition ([9]; 15 min): 79.23 ± 0.39
Vmax ± SE, pAKT 1/2 inhibition ([9]; 30 min): 86.10 ± 1.13
Vmax ± SE, pAKT 1/2 inhibition ([9]; 60 min): 87.27 ± 0.59
IC50 ([9]; 0.25 h, 15 min): 25.9 µM
IC50 ([9]; 0.5 h, 30 min): 22.3 µM
IC50 ([9]; 1 h, 60 min): 21.4 µM
Vmax ± SE, pERK 1/2 inhibition ([10]; 15 min): 53.57 ± 3.41
Vmax ± SE, pERK 1/2 inhibition ([10]; 30 min): 80.62 ± 1.98
Vmax ± SE, pERK 1/2 inhibition ([10]; 60 min): 93.91 ± 3.61
IC50 ([10]; 0.25 h, 15 min): 49 µM
IC50 ([10]; 0.5 h, 30 min): 14.5 µM
IC50 ([10]; 1 h, 60 min): 12.8 µM
Vmax ± SE, pERK 1/2 inhibition ([11]; 15 min): 68.95 ± 3.21
Vmax ± SE, pERK 1/2 inhibition ([11]; 30 min): 74.99 ± 2.47
Vmax ± SE, pERK 1/2 inhibition ([11]; 60 min): 80.67 ± 1.52
IC50 ([11]; 0.25 h, 15 min): 20 µM
IC50 ([11]; 0.5 h, 30 min): 14.1 µM
IC50 ([11]; 1 h, 60 min): 9.18 µM
Median Overall Survival (OS) [12]: 112 days
Progression Free Survival (PFS) [12]: 11 days
Response Rate (RR) [12]: 100%
Cures (mice alive for 120 days after tumor inoculation) ([12]; ip): 2/5
MST (mean survival time) ([12]; ip): 79.6 ± 4.0 p < 0.01 Days
T/C% (mean survival time of treated versus saline controls) ([12]; ip): 195.6%
TI% (Tumor Inhibition) ([12]; ip): 67.6%
size of the primary tumor ([12]; ip): 478 ± 18.3 mm^3
GI50 [13, 25]: 3.5 ± 0.4 µM
IC50 [13, 26]: 20 ± 1.1 µM
ratio [pAKT]/[GAPDH] band intensity ([14]; 15min, control ratio 0.98): 0.94
ratio [pAKT]/[GAPDH] band intensity ([14]; 30min, control ratio 0.98): 0.78
ratio [pAKT]/[GAPDH] band intensity ([14]; 1h, control ratio 1.02): 0.73
ratio [pAKT]/[GAPDH] band intensity ([14]; 3h, control ratio 0.99): 0.65
ratio [pAKT]/[GAPDH] band intensity ([14]; 12h, control ratio 0.94): 0.58
ratio [pAKT]/[GAPDH] band intensity, single blot (panel A) ([14]; 1h): 0.40
ratio [pAKT]/[GAPDH] band intensity, single blot (panel A) ([14]; 3h): 0.20
GI50 [15, 25]: 18 ± 0.9 µM
IC50 [15, 26]: 76 ± 7.5 µM
TGI (Total Growth Inhibition) [16]: 8 ± 0.8 μΜ
GI50 [17, 25]: 12 ± 0.7 µM
IC50 [17, 26]: 40 ± 3.5 µM
Vmax ± SE, pAKT 1/2 inhibition ([18]; 15 min): 57.76 ± 3.49
Vmax ± SE, pAKT 1/2 inhibition ([18]; 30 min): 59.24 ± 0.49
Vmax ± SE, pAKT 1/2 inhibition ([18]; 60 min): 62.49 ± 0.25
IC50 ([18]; 0.25 h, 15 min): > 50 µM
IC50 ([18]; 0.5 h, 30 min): 49.8 µM
IC50 ([18]; 1 h, 60 min): 29.5 µM
Vmax ± SE, pERK 1/2 inhibition ([19]; 15 min): 59.43 ± 1.10
Vmax ± SE, pERK 1/2 inhibition ([19]; 30 min): 72.79 ± 1.14
Vmax ± SE, pERK 1/2 inhibition ([19]; 60 min): 74.35 ± 0.49
IC50 ([19]; 0.25 h, 15 min): 28.7 µM
IC50 ([19]; 0.5 h, 30 min): 12.4 µM
IC50 ([19]; 1 h, 60 min): 9.29 µM
Vmax ± SE, pAKT 1/2 inhibition ([20]; 15 min): 57.71 ± 5.51
Vmax ± SE, pAKT 1/2 inhibition ([20]; 30 min): 60.76 ± 2.97
Vmax ± SE, pAKT 1/2 inhibition ([20]; 60 min): 62.20 ± 5.12
IC50 ([20]; 0.25 h, 15 min): 29.1 µM
IC50 ([20]; 0.5 h, 30 min): 24.4 µM
IC50 ([20]; 1 h, 60 min): 18.3 µM
Vmax ± SE, pAKT 1/2 inhibition ([21]; 15 min): 59.78 ± 4.67
Vmax ± SE, pAKT 1/2 inhibition ([21]; 30 min): 57.10 ± 3.38
Vmax ± SE, pAKT 1/2 inhibition ([21]; 60 min): 63.12 ± 4.19
IC50 ([21]; 0.25 h, 15 min): 44.4 µM
IC50 ([21]; 0.5 h, 30 min): 40.3 µM
IC50 ([21]; 1 h, 60 min): 25.8 µM
ratio [pERK1+pERK2]/[GAPDH] band intensity ([22]; 30min, control ratio 1.71): 1.40
ratio [pERK1+pERK2]/[GAPDH] band intensity ([22]; 1h, control ratio 1.65): 0.96
ratio [pERK1+pERK2]/[GAPDH] band intensity ([22]; 3h, control ratio 1.99): 1.11
ratio [pERK1+pERK2]/[GAPDH] band intensity ([22]; 6h, control ratio 1.85): 0.54
ratio [pERK1+pERK2]/[GAPDH] band intensity ([22]; 12h, control ratio 1.82): 0.49
ratio [pERK1+pERK2]/[GAPDH] band intensity ([22]; 24h, control ratio 1.92): 0.58
ratio [pERK1+pERK2]/[GAPDH] band intensity, single blot (panel A) ([22]; 1h, control ratio 1.85): 0.74
ratio [pERK1+pERK2]/[GAPDH] band intensity, single blot (panel A) ([22]; 3h, control ratio 1.85): 1.02
TGI (Total Growth Inhibition) [23]: 42 ± 2.8 μΜ
GI50 [24, 25]: 25 ± 1.4 µM
IC50 [24, 26]: 65 ± 3.4 µM
